The values that follow are results of earlier work, collected in patent publication US20190320688A1, “COMPOSITIONS FOR PREVENTING AND RELIEVING HANGOVER & LIVER DAMAGE WHICH OCCUR DUE TO ALCOHOL CONSUMPTION” (priority 2018, published 2019).

The conditions of the series: biological activities listed in background table.

Take Methylcurcumin: the Activity result is “L. amazonensis”.
